Experimental data reported in patent US20250345446A1 (Draupnir Bio ApS, priority 2022, published 2025).
Where two headings read alike, the source gives them in different places. Each block holds one molecule with its values, some of them ahead of it. Residues, ends and D or L forms follow the SMILES beside them. *: point of attachment. Biotin = O=C1N[C@H]2[C@H](CS[C@H]2CCCCC(=O)*)N1

Tests used:
[1] = test system: HEK293 cells expressing full length sortilin receptor; assay: Cellular uptake of NA650 in HEK293/sortilin cells; format: cell-based; settings: Table 6; NA650 (100 nM), 3 h, biotin warhead compounds
Description: Cellular uptake of NA650 was investigated in HEK293 cells expressing full length sortilin receptor (Petersen et. al.). Cells were seeded in poly-L-lysine coated 96-well plates (Perkin Elmer) (40K/well) in 50 μL culture medium (DMEM (Lonza)+10% FBS (SigmaAldrich)+1% penicillin-streptomycin (SigmaAldrich)+1% GlutaMAX (Gibco)+100 μg/mL Zeocin (Invitrogen)) and incubated overnight in cell incubator (37° C., humidified, 5% CO2).
Culture medium was replaced with assay medium (DMEM (Lonza)+10% fetal bovine serum (SigmaAldrich)+1% penicillin-streptomycin (SigmaAldrich)+1% GlutaMAX (Gibco)) containing NA650 (Invitrogen) (100 nM) (Thermo Fischer) and peptidic bifunctional compounds (9.8 nM to 10 μM). Cells were incubated for 3 h in cell incubator before they were washed in dPBS (Bionordika). The DyLight650 signal in the cell layer was detected using a fluorescence plate reader (BMG Labtech Clariostar).
Cellular uptake of NA650 was investigated in HEK293 cells expressing full length sortilin receptor using a methodology analogous to example 3.

[2] = biological target: T1, soluble ectodomain of sortilin-6his (Homo sapiens, UniProt Q99523, V650M); assay: MST binding to soluble ectodomain of sortilin-6his; settings: MST, read-out: KD score, binding to sortilin (Kd)
T1 construct: the soluble ectodomain of sortilin-6his is measured by microscale thermophoresis (MST)

[3] = biological target: T2, Streptavidin-d2 and Sortilin-6His (UniProt P22629+Q99523, V650M); assay: TR-FRET ternary complex formation streptavidin / small molecule bifunctional compound / sortilin; format: binding; settings: Table 5; 5 μM-0.6 pM, […] incubation
T2 construct: ternary complex formation composed of streptavidin, bifunctional compound and sortilin-6his

[4] = biological target: streptavidin, bifunctional compound and sortilin-6his (UniProt P22629+Q99523, V650M); assay: TR-FRET ternary complex formation streptavidin / bifunctional peptide / sortilin-6his; settings: Table 2; […] incubation, HTRF ratio 665/620 nm
Sortilin-6His [5] = biological target: T3, Sortilin-6His (Homo sapiens (Human), UniProt Q99523 78-755); assay: MST on labelled sortilin-6his ectodomain; KD score: ++ <100 nM, + 100-2000 nM
T3 construct: In MST it was labelled non-covalently with RED-tris-NTA; also called soluble ectodomain of sortilin-6his; fluorescent sortilin-6his

Sortilin-6His [6] = biological target: T3, Sortilin-6His; assay: TR-FRET (HTRF) ternary complex streptavidin-d2 / biotin-peptide / sortilin-6His; AUC score: + <5000, ++ >5000
[7] = Table 4, small molecule bifunctional compounds
[8] = Table 1, biotin-linker-peptide bifunctional compounds

T1 sequence (Q99523 with tags, fused parts or gaps V650M): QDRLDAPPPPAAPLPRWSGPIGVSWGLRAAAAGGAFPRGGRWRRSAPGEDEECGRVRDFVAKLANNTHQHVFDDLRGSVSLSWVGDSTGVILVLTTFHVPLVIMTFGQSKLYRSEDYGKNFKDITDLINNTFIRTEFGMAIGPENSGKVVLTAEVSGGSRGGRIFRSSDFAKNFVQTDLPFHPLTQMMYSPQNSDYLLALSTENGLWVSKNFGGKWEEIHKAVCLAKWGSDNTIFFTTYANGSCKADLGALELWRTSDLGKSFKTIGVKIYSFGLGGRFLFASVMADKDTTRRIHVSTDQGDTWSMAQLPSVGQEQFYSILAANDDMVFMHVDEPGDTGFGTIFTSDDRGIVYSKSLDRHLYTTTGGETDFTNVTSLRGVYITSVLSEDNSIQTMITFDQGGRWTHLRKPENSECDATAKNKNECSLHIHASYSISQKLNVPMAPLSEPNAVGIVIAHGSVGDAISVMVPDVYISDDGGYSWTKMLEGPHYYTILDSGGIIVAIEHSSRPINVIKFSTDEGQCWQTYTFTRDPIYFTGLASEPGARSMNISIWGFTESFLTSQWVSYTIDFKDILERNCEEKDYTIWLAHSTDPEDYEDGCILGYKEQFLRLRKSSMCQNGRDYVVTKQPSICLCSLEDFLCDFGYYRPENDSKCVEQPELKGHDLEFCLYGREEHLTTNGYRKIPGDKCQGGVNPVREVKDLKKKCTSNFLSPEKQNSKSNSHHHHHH
T3 sequence (Q99523 78-755 V650M limits assumed): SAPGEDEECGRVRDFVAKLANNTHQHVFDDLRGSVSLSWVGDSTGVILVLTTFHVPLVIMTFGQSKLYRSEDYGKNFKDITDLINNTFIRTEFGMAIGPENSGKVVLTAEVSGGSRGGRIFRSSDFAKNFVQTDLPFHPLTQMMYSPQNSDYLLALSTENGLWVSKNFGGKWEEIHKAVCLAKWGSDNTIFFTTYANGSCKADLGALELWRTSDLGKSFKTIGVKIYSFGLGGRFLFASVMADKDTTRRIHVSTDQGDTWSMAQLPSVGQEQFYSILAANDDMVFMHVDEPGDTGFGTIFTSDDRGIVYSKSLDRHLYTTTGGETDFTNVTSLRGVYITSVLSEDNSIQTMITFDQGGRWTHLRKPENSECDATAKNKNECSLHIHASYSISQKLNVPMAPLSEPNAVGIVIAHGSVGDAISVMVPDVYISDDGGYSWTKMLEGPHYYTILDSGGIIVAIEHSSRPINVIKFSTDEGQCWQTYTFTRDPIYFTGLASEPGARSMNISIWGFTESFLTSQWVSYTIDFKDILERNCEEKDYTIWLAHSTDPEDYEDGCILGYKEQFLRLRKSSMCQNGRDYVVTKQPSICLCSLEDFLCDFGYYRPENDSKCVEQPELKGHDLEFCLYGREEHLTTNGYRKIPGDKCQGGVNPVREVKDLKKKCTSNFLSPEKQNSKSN

Molecule: CC(C)(C)CC[C@H](NC(=O)c1ccc(Oc2cccc(OCCOCCOCCOCCOCCOCCNC(=O)CCCC[C@@H]3SC[C@@H]4NC(=O)N[C@@H]43)c2)nc1)C(=O)O (stereo in doubt) [BF025]
AUC score, target internalization [1]: + (AUC < 100) | Kd [2, 7]: 10 to 250 nM | AUC score, ternary complex formation [3]: + (AUC < 25.000)

Molecule: CC(C)(C)CC[C@H](NC(=O)c1ccc(Oc2cccc(OCCOCCOCCOCCOCCOCCOCCOCCNC(=O)CCCC[C@@H]3SC[C@@H]4NC(=O)N[C@@H]43)c2)nc1)C(=O)O [BF017, (2S)-2-[[6-[3-[2-[2-[2-[2-[2-[2-[2-[2-[5-[(3aS,4S,6aR)-2-oxo-1,3,3a,4,6,6a-hexahydrothieno[3,4-d]imidazol-4-yl]pentanoylamino]ethoxy]ethoxy]ethoxy]ethoxy]ethoxy]ethoxy]ethoxy]ethoxy]phenoxy]pyridine-3-carbonyl]amino]-5,5-dimethyl-hexanoic acid]
AUC score, target internalization [1]: ++ (AUC > 100) | Kd [2, 7]: 1 to 10 nM | AUC score, ternary complex formation [3]: + (AUC < 25.000)

Molecule: CC(C)(C)CC[C@H](NC(=O)c1ccc(Oc2cccc(OCCOCCOCCOCCOCCOCCOCCNC(=O)CCCC[C@@H]3SC[C@@H]4NC(=O)N[C@@H]43)c2)nc1)C(=O)O [BF019, (2S)-2-[[6-[3-[2-[2-[2-[2-[2-[2-[2-[5-[(3aS,4S,6aR)-2-oxo-1,3,3a,4,6,6a-hexahydrothieno[3,4-d]imidazol-4-yl]pentanoyl-amino]ethoxy]ethoxy]ethoxy]ethoxy]ethoxy]ethoxy]ethoxy]phenoxy]pyridine-3-carbonyl]amino]-5,5-dimethyl-hexanoic acid]
AUC score, target internalization [1]: + (AUC < 100) | Kd [2, 7]: 1 to 10 nM | AUC score, ternary complex formation [3]: + (AUC < 25.000)

Molecule: CC(C)C[C@H](NC(=O)[C@H](CC(C)C)NC(=O)[C@H](CCC(N)=O)NC(=O)[C@H](CCCNC(=N)N)NC(=O)CNC(=O)[C@H](CO)NC(=O)CNC(=O)CNC(=O)CNC(=O)CNC(=O)[C@H](CO)NC(=O)CNC(=O)CNC(=O)CCCC[C@@H]1SC[C@@H]2NC(=O)N[C@@H]21)C(=O)O [compound 141] (Biotin-GGSGGGGSGRQLL-OH)
Kd [2, 8]: < 100 nM | AUC score, TR-FRET measurements of ternary complex formation [4]: + (AUC < 5000)

Molecule: CC(C)C[C@H](NC(=O)[C@H](CC(C)C)NC(=O)[C@H](CCC(N)=O)NC(=O)[C@H](CCCNC(=N)N)NC(=O)[C@H](CO)NC(=O)CNC(=O)CNC(=O)CNC(=O)CNC(=O)[C@H](CO)NC(=O)CNC(=O)CNC(=O)CNC(=O)CNC(=O)[C@H](CO)NC(=O)CNC(=O)CNC(=O)CCCC[C@@H]1SC[C@@H]2NC(=O)N[C@@H]21)C(=O)O [compound 142] (Biotin-GGSGGGGSGGGGSRQLL-OH)
Kd [2, 8]: < 100 nM | AUC score, TR-FRET measurements of ternary complex formation [4]: + (AUC < 5000)

Molecule: CC(C)C[C@H](NC(=O)[C@H](CC(C)C)NC(=O)[C@H](CCC(N)=O)NC(=O)[C@H](Cc1ccccc1)NC(=O)CNC(=O)[C@H](CO)NC(=O)CNC(=O)CNC(=O)CNC(=O)CNC(=O)[C@H](CO)NC(=O)CNC(=O)CNC(=O)CCCC[C@@H]1SC[C@@H]2NC(=O)N[C@@H]21)C(=O)O [compound 145] (Biotin-GGSGGGGSGFQLL-OH)
Kd [2, 8]: < 100 nM | AUC score, TR-FRET measurements of ternary complex formation [4]: + (AUC < 5000)

Molecule: CC(C)C[C@H](NC(=O)[C@H](CC(C)C)NC(=O)[C@H](CCC(N)=O)NC(=O)[C@H](Cc1ccccc1)NC(=O)[C@H](CO)NC(=O)CNC(=O)CNC(=O)CNC(=O)CNC(=O)[C@H](CO)NC(=O)CNC(=O)CNC(=O)CNC(=O)CNC(=O)[C@H](CO)NC(=O)CNC(=O)CNC(=O)CCCC[C@@H]1SC[C@@H]2NC(=O)N[C@@H]21)C(=O)O [compound 146] (Biotin-GGSGGGGSGGGGSFQLL-OH)
Kd [2, 8]: 100 to 2000 nM | AUC score, TR-FRET measurements of ternary complex formation [4]: ++ (AUC > 5000)

Molecule: CC(C)C[C@H](NC(=O)[C@H](CC(C)C)NC(=O)[C@H](CCC(N)=O)NC(=O)[C@H](Cc1ccccc1)NC(=O)CNC(=O)CNC(=O)CNC(=O)[C@H](CO)NC(=O)CNC(=O)CNC(=O)CNC(=O)CNC(=O)[C@H](CO)NC(=O)CNC(=O)CNC(=O)CCCC[C@@H]1SC[C@@H]2NC(=O)N[C@@H]21)C(=O)O [compound 148] (Biotin-GGSGGGGSGGGFQLL-OH)
Kd [2, 8]: 100 to 2000 nM | AUC score, TR-FRET measurements of ternary complex formation [4]: ++ (AUC > 5000)

Molecule: CC(C)C[C@H](NC(=O)[C@H](CC(C)C)NC(=O)[C@H](CCC(N)=O)NC(=O)[C@H](CCCNC(=N)N)NC(=O)CNC(=O)CNC(=O)CNC(=O)[C@H](CO)NC(=O)CNC(=O)CNC(=O)CNC(=O)CNC(=O)[C@H](CO)NC(=O)CNC(=O)CNC(=O)CCCC[C@@H]1SC[C@@H]2NC(=O)N[C@@H]21)C(=O)O [compound 149] (Biotin-GGSGGGGSGGGRQLL-OH)
Kd [2, 8]: 100 to 2000 nM | AUC score, TR-FRET measurements of ternary complex formation [4]: + (AUC < 5000)

KD (Sortilin-6His [5]): < 100 nM | AUC of TR-FRET (HTRF ratio vs compound concentration) for ternary complex formation (Sortilin-6His [6]): < 5000 auc
B1: Biotin-GGSGGGGSGGGGSRQLL-OH (peptide)
peptide: Biotin-GGSGGGGSGGGGSRQLL-OH
SMILES: CC(C)C[C@H](NC(=O)[C@H](CC(C)C)NC(=O)[C@H](CCC(N)=O)NC(=O)[C@H](CCCNC(=N)N)NC(=O)[C@H](CO)NC(=O)CNC(=O)CNC(=O)CNC(=O)CNC(=O)[C@H](CO)NC(=O)CNC(=O)CNC(=O)CNC(=O)CNC(=O)[C@H](CO)NC(=O)CNC(=O)CNC(=O)CCCC[C@@H]1SC[C@@H]2NC(=O)N[C@@H]21)C(=O)O

KD (Sortilin-6His [5]): 100 to 2000 nM | AUC of TR-FRET (HTRF ratio vs compound concentration) for ternary complex formation (Sortilin-6His [6]): > 5000 auc
B2: Biotin-GGSGGGGSGGGGSFQLL-OH (peptide)
peptide: Biotin-GGSGGGGSGGGGSFQLL-OH
SMILES: CC(C)C[C@H](NC(=O)[C@H](CC(C)C)NC(=O)[C@H](CCC(N)=O)NC(=O)[C@H](Cc1ccccc1)NC(=O)[C@H](CO)NC(=O)CNC(=O)CNC(=O)CNC(=O)CNC(=O)[C@H](CO)NC(=O)CNC(=O)CNC(=O)CNC(=O)CNC(=O)[C@H](CO)NC(=O)CNC(=O)CNC(=O)CCCC[C@@H]1SC[C@@H]2NC(=O)N[C@@H]21)C(=O)O

KD (Sortilin-6His [5]): < 100 nM | AUC of TR-FRET (HTRF ratio vs compound concentration) for ternary complex formation (Sortilin-6His [6]): < 5000 auc
B3: Biotin-GGSGGGGSGRQLL-OH (peptide)
peptide: Biotin-GGSGGGGSGRQLL-OH
SMILES: CC(C)C[C@H](NC(=O)[C@H](CC(C)C)NC(=O)[C@H](CCC(N)=O)NC(=O)[C@H](CCCNC(=N)N)NC(=O)CNC(=O)[C@H](CO)NC(=O)CNC(=O)CNC(=O)CNC(=O)CNC(=O)[C@H](CO)NC(=O)CNC(=O)CNC(=O)CCCC[C@@H]1SC[C@@H]2NC(=O)N[C@@H]21)C(=O)O

KD (Sortilin-6His [5]): < 100 nM | AUC of TR-FRET (HTRF ratio vs compound concentration) for ternary complex formation (Sortilin-6His [6]): < 5000 auc
B4: Biotin-GGSGGGGSGFQLL-OH (peptide)
peptide: Biotin-GGSGGGGSGFQLL-OH
SMILES: CC(C)C[C@H](NC(=O)[C@H](CC(C)C)NC(=O)[C@H](CCC(N)=O)NC(=O)[C@H](Cc1ccccc1)NC(=O)CNC(=O)[C@H](CO)NC(=O)CNC(=O)CNC(=O)CNC(=O)CNC(=O)[C@H](CO)NC(=O)CNC(=O)CNC(=O)CCCC[C@@H]1SC[C@@H]2NC(=O)N[C@@H]21)C(=O)O

KD (Sortilin-6His [5]): 100 to 2000 nM | AUC of TR-FRET (HTRF ratio vs compound concentration) for ternary complex formation (Sortilin-6His [6]): > 5000 auc
B5: Biotin-GGSGGGGSGGGFQLL-OH (peptide)
peptide: Biotin-GGSGGGGSGGGFQLL-OH
SMILES: CC(C)C[C@H](NC(=O)[C@H](CC(C)C)NC(=O)[C@H](CCC(N)=O)NC(=O)[C@H](Cc1ccccc1)NC(=O)CNC(=O)CNC(=O)CNC(=O)[C@H](CO)NC(=O)CNC(=O)CNC(=O)CNC(=O)CNC(=O)[C@H](CO)NC(=O)CNC(=O)CNC(=O)CCCC[C@@H]1SC[C@@H]2NC(=O)N[C@@H]21)C(=O)O

KD (Sortilin-6His [5]): 100 to 2000 nM | AUC of TR-FRET (HTRF ratio vs compound concentration) for ternary complex formation (Sortilin-6His [6]): < 5000 auc
B6: Biotin-GGSGGGGSGGGRQLL-OH (peptide)
peptide: Biotin-GGSGGGGSGGGRQLL-OH
SMILES: CC(C)C[C@H](NC(=O)[C@H](CC(C)C)NC(=O)[C@H](CCC(N)=O)NC(=O)[C@H](CCCNC(=N)N)NC(=O)CNC(=O)CNC(=O)CNC(=O)[C@H](CO)NC(=O)CNC(=O)CNC(=O)CNC(=O)CNC(=O)[C@H](CO)NC(=O)CNC(=O)CNC(=O)CCCC[C@@H]1SC[C@@H]2NC(=O)N[C@@H]21)C(=O)O

KD (Sortilin-6His [5]): 100 to 2000 nM | AUC of TR-FRET (HTRF ratio vs compound concentration) for ternary complex formation (Sortilin-6His [6]): > 5000 auc
B7: Biotin-GGSGGGGSGGGGSGGFQLL-OH (peptide)
peptide: Biotin-GGSGGGGSGGGGSGGFQLL-OH
SMILES: CC(C)C[C@H](NC(=O)[C@H](CC(C)C)NC(=O)[C@H](CCC(N)=O)NC(=O)[C@H](Cc1ccccc1)NC(=O)CNC(=O)CNC(=O)[C@H](CO)NC(=O)CNC(=O)CNC(=O)CNC(=O)CNC(=O)[C@H](CO)NC(=O)CNC(=O)CNC(=O)CNC(=O)CNC(=O)[C@H](CO)NC(=O)CNC(=O)CNC(=O)CCCC[C@@H]1SC[C@@H]2NC(=O)N[C@@H]21)C(=O)O
